From ChEMBL document CHEMBL4840331, “Configurational Assignment of a Flexible Benzo[g]isochromene Stereodiad from Rubia philippinensis and Inhibition of Soluble Epoxide Hydrolase Activity” (J Nat Prod, 2021)

Biological target: T1, Bifunctional epoxide hydrolase 2 (Homo sapiens, UniProt P34913)
T1 sequence (P34913 whole entry): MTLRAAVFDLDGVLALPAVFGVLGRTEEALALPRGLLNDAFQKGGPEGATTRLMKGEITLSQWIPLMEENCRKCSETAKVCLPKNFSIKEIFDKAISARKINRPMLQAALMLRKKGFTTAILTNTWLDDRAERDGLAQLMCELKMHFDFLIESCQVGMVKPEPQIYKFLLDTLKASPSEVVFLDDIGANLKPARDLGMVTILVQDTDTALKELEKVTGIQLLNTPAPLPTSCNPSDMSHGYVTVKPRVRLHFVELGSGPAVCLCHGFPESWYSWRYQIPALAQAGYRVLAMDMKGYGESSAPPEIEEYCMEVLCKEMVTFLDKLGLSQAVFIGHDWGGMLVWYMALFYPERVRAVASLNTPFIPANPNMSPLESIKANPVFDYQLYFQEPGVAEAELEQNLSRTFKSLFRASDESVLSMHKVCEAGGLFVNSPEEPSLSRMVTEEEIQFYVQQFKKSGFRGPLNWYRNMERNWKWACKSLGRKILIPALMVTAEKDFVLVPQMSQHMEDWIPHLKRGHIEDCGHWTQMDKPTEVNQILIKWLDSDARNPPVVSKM
Assay: Inhibition of sEH (unknown origin) expressed in baculovirus expression system incubated for 1 hr

`C[C@@H](C(=O)O)[C@H]1Cc2c(c(O)c3ccccc3c2O[C@@H]2O[C@H](CO)[C@@H](O)[C@H](O)[C@H]2O)C(=O)O1` showed an IC50 of 600 nM.
